The values that follow are results of earlier work, collected in patent publication US20220347117A1 (priority 2021, published 2022).

With `C=CCN1CC[C@]23c4c5ccc(O)c4O[C@H]2C(=O)CC[C@@]3(O)[C@H]1C5` [naloxone], the pKa entry is “about 7.94”.
